pEC50: −log10 of the molar value.
Assays:
5-HT4 receptors = 5-HT4 receptors (Homo sapiens (Human), UniProt Q13639); assay: Determination of EC50 values for 5-HT4 receptor (pCRE-Luc reporter assay); type: cell-based; settings: CHO cells expressing recombinant human 5-HT4 receptor and pCRE-Luc reporter; 4 h incubation; luciferase activity
Procedure: A stable CHO cell line expressing recombinant human 5-HT4 receptor and pCRE-Luc reporter system was used for cell-based assay. The assay offers a non-radioactive based approach to determine binding of a compound to GPCRs. In this specific assay, the level of intracellular cyclic AMP, which is modulated by activation, or inhibition of the receptor is measured. The recombinant cells harbor luciferase reporter gene under the control of cAMP response element.
The above cells were grown in 96 well clear bottom white plates in Ham's F12 medium containing 10% fetal bovine serum. Prior to the addition of compounds or standard agonist, cells were serum starved overnight. Increasing concentrations of test compounds were added to the cells in OptiMEM medium. The incubation was continued in CO2 incubator at 37° C. with 5% CO2 conditions for 4 h. Medium was removed and cells were washed with phosphate buffered saline. The cells were lysed and luciferase activity was measured in a Luminometer. Concentration-response data was generated using the luciferase assay, following incubation of cells with receptor ligands, were analyzed by subtracting basal levels (i.e. with medium alone), then normalizing values as a percentage of controls (endogenous agonist serotonin (10 μM)). […] EC50 values of the compounds were defined as the concentration required in stimulating the luciferase activity by 50%.

[1] = Rat brain penetration study; type: in vivo; settings: brain/plasma, oral (gavage) 3 mg/kg, male Wistar rats, brain concentrations below LLOQ taken as zero, read-out: Single dose Brain Penetration (Cb/Cp)
Procedure: Male Wistar rats (225±25 g) were used as experimental animals. Three animals were housed in each cage. Animals were given water and food ad libitum throughout the experiment and maintained on a 12 h light/dark cycle.
Brain penetration was determined in discrete manner in rats. One day prior to dosing day, male Wistar rats were acclimatized. After acclimatization, the rats were grouped according to their weight. In each group, 3 animals were kept in individual cages and allowed free access to food and water. At each time point (0.5, 1, and 2 h) n=3 animals were used.
The compounds of formula (I) were suitably preformulated and administered orally at (free base equivalent) 3 mg/kg. Blood samples were collected via, cardiac puncture by using isoflurane anesthesia. The animals were sacrificed to collect brain tissue. Plasma was separated and brain samples were homogenized and stored frozen at −20° C. until analysis.
The concentrations of the compounds of formula (I) were quantified in plasma and brain homogenate by qualified LC-MS/MS method using a suitable extraction technique. The compounds of formula (I) were quantified in the calibration range of 1-2000 ng/mL in plasma and brain homogenate. Study samples were analyzed using calibration samples in the batch and quality control samples spread across the batch. Extent of brain-plasma ratio was calculated (Cb/Cp). Brain concentrations were found below LLOQ and a value of zero was considered for calculation purposes.

gastric emptying = assay: Effect on gastric emptying in Beagle dogs (clonidine model of gastroparesis); type: in vivo; settings: 3 and 10 mg/kg oral
Procedure: Six beagle dogs were used for the study in a crossover manner such that all 6 dogs received all the treatments. Each dog was placed in an individual cage after overnight fasting and water removed. To provide a model of gastroparesis, clonidine (α2 adrenergic agonist) at a dose of 10 μg/kg was injected subcutaneously 30 min before test meal administration.
Dogs were orally administered test compound of example 2 at 1, 3 and 10 mg/kg or vehicle or cisapride at 10 mg/kg immediately before the administration of clonidine. The test meal (10 mL/kg), made up of commercially available semi-solid food with 10 mg/kg of acetaminophen (APAP), was provided 30 min after clonidine injection. Blood samples were collected from cephalic vein at 0, 0.25, 0.5, 0.75, 1.0, 1.25, 1.5 & 2.0 h after test meal administration and then plasma was separated by centrifugation. Plasma concentrations of APAP were determined by in-house methods using LC-MS/MS.

colonic transit = assay: Effect on colonic transit in Swiss mice; type: in vivo, Male Swiss mice; settings: 1 and 3 mg/kg, p.o., carmine dye, 3 h after dye
Procedure: Male Swiss mice of body weight ˜20-30 g were fasted for 16 h with free access to water prior to the experiment. Mice were administrated compound of example 2 or vehicle, 30 min after administration of 0.5 ml of carmine dye solution. Mice were sacrificed 3 h after dye administration and the distance traveled by the dye from proximal colon was measured. Colonic transit was expressed as % colonic transit=100×(length of colon in which carmine moved/total length of colon).

[2] = system: intestinal (jejunum) EMG activity; assay: Intestinal myoelectrical activity in male Wistar rats; type: in vivo; settings: p.o.
Procedure: Method: The telemetry transmitter (F40-EET; DSI, MA, USA) was implanted subcutaneously in the rat and the spring electrodes were implanted into the walls of intestine (jejunum) under isoflurane anesthesia. After two weeks of surgical recovery, animals were fasted for 14 h and transferred to recording cages. The transmitter was switched on using magnetic switch and baseline intestinal EMG activity was recorded for 3 h. Rats were treated with vehicle, test compound of example 2 (10 or 30 mg/kg, p.o.) or positive control, prucalopride (10 mg/kg, p.o.) was administered and EMG signals were recorded for additional 3 h using Ponemah software (DSI, MA, USA). Animals were given access to only water during study. The recorded EMG signal was filtered using 20-50 Hz band filter and spiking activity was measured in bouts of 30 min using NeuroScore software (DSI, MA, USA).

5-HT4 receptors, sequence (Q13639 whole entry): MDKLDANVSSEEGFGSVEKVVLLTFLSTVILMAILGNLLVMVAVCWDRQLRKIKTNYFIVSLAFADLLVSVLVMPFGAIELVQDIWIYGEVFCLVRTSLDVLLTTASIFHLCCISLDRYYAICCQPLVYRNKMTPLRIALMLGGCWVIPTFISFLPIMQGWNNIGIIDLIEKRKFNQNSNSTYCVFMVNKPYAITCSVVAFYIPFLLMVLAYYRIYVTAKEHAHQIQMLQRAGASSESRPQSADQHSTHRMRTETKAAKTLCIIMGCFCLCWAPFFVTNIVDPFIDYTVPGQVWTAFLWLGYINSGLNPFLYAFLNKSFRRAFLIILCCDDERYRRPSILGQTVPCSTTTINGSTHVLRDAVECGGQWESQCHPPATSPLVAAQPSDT

CC(C)n1c(=O)c(C(=O)NC2CC3CCC(C2)N3C[C@@H](O)CN(C)S(C)(=O)=O)cc2cccn21.O=C(O)C(O)C(O)C(=O)O (single isomer, unassigned) [Example 2]
pEC50 (5-HT4 receptors): 8.39
Kp [1]: 0
gastric emptying (gastric emptying; clonidine-treated (10 μg/kg s.c.) beagle dogs, plasma APAP): enhanced the gastric emptying in dose dependent manner
gastric motor activity (gastric emptying; clonidine-treated beagle dogs): increased gastric motor activity
colonic transit (colonic transit): increased the colonic transit
increase in myoelectric activity ([2]; 30 mg/kg, jejunum EMG spiking): 97±31%
myoelectric activity ([2]; 10 or 30 mg/kg): dose-dependent increase in myoelectric activity

From patent publication US20250019386A1, “PYRROLO[1,2-b]-2-PYRIDAZINONE COMPOUNDS AS 5-HT4 RECEPTOR AGONISTS” (SUVEN LIFE SCIENCES LIMITED, priority 2022, published 2025)
